Source: the NIST ThermoML archive (doi:10.1021/acs.jced.6b00781)
Numbers after ± are expanded uncertainties.

Conditions: Crystal

SMILES	Normal melting temperature (visual observation) [°C]	Normal melting temperature (DTA) [°C]
Oc1cccc2ccccc12 [1-naphthol]	97.39 ± 2	–
Oc1ccc2ccccc2c1 [2-hydroxynaphthalene]	–	123.83 ± 2
